This is an account of results in US12685312B2, “Sulfonamide apyrase inhibitors” (Texas Crop Science, Inc., priority 2022, dated 2026).

Each structure is given as a SMILES string.

The test deals with apyrase. Description: Screen for apyrase inhibitors (Method 1, in vitro phosphate-release absorbance assay). The following applies: inhibitor conc at 1 mM stock, 1 hr room temperature, absorbance 630 nm; rounded average of two assay results. Format: biochemical. The procedure, abridged: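 Phosphate-release colorimetric assay (Windsor method) in 60 mM Hepes, 3 mM MgCl2, 3 mM CaCl2, 3 mM ATP, pH 6.5, with compound or DMSO control added. Released phosphate developed with ammonium molybdate and ascorbic acid/TCA, then stopped with citrate/acetic acid.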
Turning to `O=C(Nc1cccc([N+](=O)[O-])c1)c1ccc(Br)c(S(=O)(=O)Nc2ccccc2)c1` [I-34, 4-bromo-N-(3-nitrophenyl)-3-(N-phenylsulfamoyl)benzamide], the “% Inhibition of Apyrase” value came out at 18%.
Consider `Cc1ccc(C(=O)Nc2ccc([N+](=O)[O-])cc2)cc1S(=O)(=O)Nc1ccc(Br)cc1` [I-6, 3-(N-(4-bromophenyl)sulfamoyl)-4-methyl-N-(4-nitrophenyl)benzamide], for which the “% Inhibition of Apyrase” value is 69%.
With `NC(=O)OCCNC(=O)c1cccc(S(=O)(=O)Nc2ccc(Br)cc2)c1` [I-17, 2-(3-(N-(4-bromophenyl)sulfamoyl)benzamido)ethyl carbamate] the figure was 52%; with `Cc1cc(F)ccc1S(=O)(=O)Nc1ccc(C(=O)Nc2cccc(C#N)c2)cc1` [I-959, N-(3-cyanophenyl)-4-((4-fluoro-2-methylphenyl)sulfonamido)benzamide], 17%; with `O=C(Nc1cccc(N2CCCC2=O)c1)c1ccc(NS(=O)(=O)c2ccccc2)cc1` [I-950, N-(3-(2-oxopyrrolidin-1-yl)phenyl)-4-(phenylsulfonamido)benzamide], 39%.
Take `Cc1cc(F)ccc1NC(=O)c1ccc(S(=O)(=O)Nc2cccc(C(F)(F)F)c2)cc1` [I-183, N-(4-fluoro-2-methylphenyl)-4-(N-(3-(trifluoromethyl)phenyl)sulfamoyl)benzamide]: the “% Inhibition of Apyrase” value was found to be 67%.
`O=C(NCC1(c2ccc(Br)cc2)CCOCC1)c1cccc(S(=O)(=O)Nc2ccc(Br)cc2)c1` [I-260, 3-(N-(4-bromophenyl)sulfamoyl)-N-((4-(4-bromophenyl)tetrahydro-2H-pyran-4-yl)methyl)benzamide]: the “% Inhibition of Apyrase” value was determined as 60%.
Take `O=C1Cc2cccc(NS(=O)(=O)c3ccc(Br)cc3)c2N1` [I-812, 4-bromo-N-(2-oxoindolin-7-yl)benzenesulfonamide]: the “% Inhibition of Apyrase” value was 54%.
On to `CC1Cc2ccccc2N1S(=O)(=O)c1cccc(C(=O)Nc2cccc(S(=O)(=O)N(C)C)c2)c1` (stereo not shown) [I-556, N-(3-(N,N-dimethylsulfamoyl)phenyl)-3-((2-methylindolin-1-yl)sulfonyl)benzamide], for which the “% Inhibition of Apyrase” value was 52%.
`O=C(Nc1ccc2c(c1)CCC2)c1cccc(NS(=O)(=O)c2cccs2)c1` [I-632, N-(2,3-dihydro-1H-inden-5-yl)-3-(thiophene-2-sulfonamido)benzamide]: the “% Inhibition of Apyrase” value is on record as 62%.
On to `COc1ccc(Cl)cc1NS(=O)(=O)c1cccc(C(=O)Nc2ccc(N(C)C)nc2)c1` [I-599, 3-(N-(5-chloro-2-methoxyphenyl)sulfamoyl)-N-(6-(dimethylamino)pyridin-3-yl)benzamide], for which the “% Inhibition of Apyrase” value was found to be 30%.
As for `CC(=O)c1cc2c(cc1NC(=O)c1ccc(S(=O)(=O)N3CCCc4ccccc43)cc1)OCO2` [I-881, N-(6-acetylbenzo[d][1,3]dioxol-5-yl)-4-((3,4-dihydroquinolin-1(2H)-yl)sulfonyl)benzamide], the “% Inhibition of Apyrase” value turned out to be 53%.
Turning to `O=C(Nc1cccc([N+](=O)[O-])c1)c1cccc(S(=O)(=O)N2CCc3ccccc32)c1` [I-38, 3-(indolin-1-ylsulfonyl)-N-(3-nitrophenyl)benzamide], the “% Inhibition of Apyrase” value was found to be 14%.
With `Cc1ccc(F)c(NC(=O)c2cccc(S(=O)(=O)N3c4ccccc4CC3C)c2)c1` (stereo not shown) [I-497, N-(2-fluoro-5-methylphenyl)-3-((2-methylindolin-1-yl)sulfonyl)benzamide] the figure was 57%.
Regarding `O=C(CNC(=O)c1ccc(Br)cc1)Nc1cccc(S(=O)(=O)Nc2ccc(Br)cc2)c1` [I-195, 4-bromo-N-(2-((3-(N-(4-bromophenyl)sulfamoyl)phenyl)amino)-2-oxoethyl)benzamide], the “% Inhibition of Apyrase” value came out at 70%.
As to `COc1ccccc1C(=O)Nc1cccc(NS(=O)(=O)c2ccc(C)c(C)c2)c1` [I-341, N-(3-((3,4-dimethylphenyl)sulfonamido)phenyl)-2-methoxybenzamide], the “% Inhibition of Apyrase” value came to 64%.
Turning to `COc1ccc(C)cc1NC(=O)c1cccc(S(=O)(=O)N2CCc3ccccc32)c1` [I-473, 3-(indolin-1-ylsulfonyl)-N-(2-methoxy-5-methylphenyl)benzamide], the “% Inhibition of Apyrase” value was found to be 59%.
As to `N#CCc1ccc(NC(=O)c2cccc(S(=O)(=O)Nc3ccc4c(c3)OCO4)c2)cc1` [I-274, 3-(N-(benzo[d][1,3]dioxol-5-yl)sulfamoyl)-N-(4-(cyanomethyl)phenyl)benzamide], the “% Inhibition of Apyrase” value worked out at 48%.
As to `COc1ccc(Br)c(C(=O)Nc2cccc(NS(=O)(=O)c3ccc(C)c(C)c3)c2)c1` [I-338, 2-bromo-N-(3-((3,4-dimethylphenyl)sulfonamido)phenyl)-5-methoxybenzamide], the “% Inhibition of Apyrase” value is reported as 69%.
For `COc1ccccc1N(C)S(=O)(=O)c1ccc(C(=O)N2CCc3ccccc32)cc1` [I-870, 4-(indoline-1-carbonyl)-N-(2-methoxyphenyl)-N-methylbenzenesulfonamide], the “% Inhibition of Apyrase” value was 57%.
Consider `O=C(Nc1cccc(S(=O)(=O)Nc2ccccc2Cl)c1)c1ccccn1` [I-745, N-(3-(N-(2-chlorophenyl)sulfamoyl)phenyl)picolinamide], for which the “% Inhibition of Apyrase” value was 46%.
As to `COc1ccc2c(c1)CCCN2C(=O)c1ccc(S(=O)(=O)Nc2ccccc2)cc1` [I-871, 4-(6-methoxy-1,2,3,4-tetrahydroquinoline-1-carbonyl)-N-phenylbenzenesulfonamide], the “% Inhibition of Apyrase” value amounted to 56%.
Take `N#Cc1ccc(NC(=O)c2cccc(S(=O)(=O)Nc3ccc4c(c3)OCO4)c2)cc1` [I-187, 3-(N-(benzo[d][1,3]dioxol-5-yl)sulfamoyl)-N-(4-cyanophenyl)benzamide]: the “% Inhibition of Apyrase” value is given as 67%.
On to `COc1ccccc1NS(=O)(=O)c1cccc(NC(=O)c2ccc(=O)n(Cc3ccccc3)n2)c1` [I-735, 1-benzyl-N-(3-(N-(2-methoxyphenyl)sulfamoyl)phenyl)-6-oxo-1,6-dihydropyridazine-3-carboxamide], for which the “% Inhibition of Apyrase” value amounted to 53%.
As to `Cc1ccc(C(=O)Nc2cccc(S(=O)(=O)Nc3ccc(Br)cc3)c2)cc1` [I-194, N-(3-(N-(4-bromophenyl)sulfamoyl)phenyl)-4-methylbenzamide], the “% Inhibition of Apyrase” value was 74%.
Take `COc1ccc(NC(=O)c2cccc(S(=O)(=O)Nc3ccc(Cl)cc3)c2)cc1` [I-246, 3-(N-(4-chlorophenyl)sulfamoyl)-N-(4-methoxyphenyl)benzamide]: the “% Inhibition of Apyrase” value is recorded as 66%.
Turning to `O=C(c1cccc(S(=O)(=O)Nc2ccc(F)cc2)c1)N1CCc2ccccc21` [I-576, N-(4-fluorophenyl)-3-(indoline-1-carbonyl)benzenesulfonamide], the “% Inhibition of Apyrase” value was determined as 49%.
As for `COc1ccccc1NS(=O)(=O)c1ccc(C(=O)Nc2ccc3c(c2)OCO3)cc1` [I-409, N-(benzo[d][1,3]dioxol-5-yl)-4-(N-(2-methoxyphenyl)sulfamoyl)benzamide], the “% Inhibition of Apyrase” value is listed as 30%.
In the case of `O=C(Nc1ccccc1F)c1cccc(S(=O)(=O)Nc2ccc3c(c2)OCO3)c1` [I-249, 3-(N-(benzo[d][1,3]dioxol-5-yl)sulfamoyl)-N-(2-fluorophenyl)benzamide], the “% Inhibition of Apyrase” value is on record as 63%.
On to `COc1ccc(NS(=O)(=O)c2ccc(NC(=O)c3ccc(Cl)cc3)cc2)cc1` [I-1001, 4-chloro-N-(4-(N-(4-methoxyphenyl)sulfamoyl)phenyl)benzamide], for which the “% Inhibition of Apyrase” value was 16%.
Turning to `O=C(c1ccc(Cl)c(S(=O)(=O)N2CCc3ccccc32)c1)N1CCc2cc([N+](=O)[O-])ccc21` [I-495, (4-chloro-3-(indolin-1-ylsulfonyl)phenyl)(5-nitroindolin-1-yl)methanone], the “% Inhibition of Apyrase” value was found to be 57%.
In the case of `O=C(Nc1ccc(S(=O)(=O)Nc2ccccc2Cl)cc1)c1ccc2c(c1)OCCO2` [I-994, N-(4-(N-(2-chlorophenyl)sulfamoyl)phenyl)-2,3-dihydrobenzo[b][1,4]dioxine-6-carboxamide], the “% Inhibition of Apyrase” value is listed as 47%.
As for `COc1cc(C(=O)Nc2cccc(NS(=O)(=O)c3ccc(C)c(C)c3)c2)cc2c1OCCO2` [I-339, N-(3-((3,4-dimethylphenyl)sulfonamido)phenyl)-8-methoxy-2,3-dihydrobenzo[b][1,4]dioxine-6-carboxamide], the figure is 69%; as for `COc1ncccc1C(=O)Nc1cccc(S(=O)(=O)Nc2ccc(Cl)cc2)c1` [I-733, N-(3-(N-(4-chlorophenyl)sulfamoyl)phenyl)-2-methoxynicotinamide], 54%; as for `Cc1ccc(NC(=O)c2cccc(NS(=O)(=O)c3ccc(C)c(F)c3)c2)nc1` [I-655, 3-((3-fluoro-4-methylphenyl)sulfonamido)-N-(5-methylpyridin-2-yl)benzamide], 35%.
As for `COc1ccc(S(=O)(=O)N2CCCCC2)cc1NC(=O)c1cccc(S(=O)(=O)Nc2ccccc2OC)c1` [I-578, N-(2-methoxy-5-(piperidin-1-ylsulfonyl)phenyl)-3-(N-(2-methoxyphenyl)sulfamoyl)benzamide], the figure is 48%.
In the case of `CN(c1ccccc1)S(=O)(=O)c1cccc(NC(=O)c2cc3cc(F)ccc3[nH]2)c1` [I-704, 5-fluoro-N-(3-(N-methyl-N-phenylsulfamoyl)phenyl)-1H-indole-2-carboxamide], the “% Inhibition of Apyrase” value turned out to be 65%.
Take `O=C(Nc1cccc([N+](=O)[O-])c1)c1cccc(S(=O)(=O)NCc2ccccc2)c1` [I-50, 3-(N-benzylsulfamoyl)-N-(3-nitrophenyl)benzamide]: the “% Inhibition of Apyrase” value was 10%.
With `CC(=O)Nc1ccc(NC(=O)c2ccc(NS(=O)(=O)c3ccc(Br)cc3)cc2)cc1` [I-963, N-(4-acetamidophenyl)-4-((4-bromophenyl)sulfonamido)benzamide] the figure was 10%; with `Cc1ccc(NS(=O)(=O)c2ccc(C(=O)N3CC4CCCN4Cc4ccccc43)cc2)cc1` (stereo not shown) [I-891, 4-(2,3,5,10,11,11a-hexahydro-1H-benzo[e]pyrrolo[1,2-a][1,4]diazepine-10-carbonyl)-N-(p-tolyl)benzenesulfonamide], 30%.
